Among the data in a melting point compilation (Tetko et al.; mined from patent text by program, amines drawn as free bases though some values may be those of a salt) are melting point values, retold here.

As a reminder, the melting point is the temperature of the solid-liquid transition.

Consider `COc1cc2c(cc1OCc1ccccc1)CCN(Cc1cccc(OC)c1OC)C2`, for which the melting point was 106 to 107 °C. The same measure for `COc1cccc2ncoc12`: 28 to 31 °C; for `CCCc1c(/C=C/c2ccccc2)nc2ccc(C(=O)O)cn2c1=O`: 250 to 252 °C. Then `Cc1cccc(N2CCNC2=O)c1`, with 137 to 138 °C; and `O=C(O)Cc1cccc(OCCCN(Cc2cccc(F)c2F)CC(c2ccccc2)c2ccccc2)c1`, with 148 °C; and `CCOC(=O)c1oc2cc(O)ccc2c(=O)c1C#N`, with 262 to 264 °C. The same measure for `CNn1cc(C(=O)O)c(=O)c2cc(F)c(F)c(F)c21`: 237 to 238 °C; for `CCOC(=O)c1cn(-c2nccs2)c2c(F)c(F)c(F)cc2c1=O`: 172 to 174 °C. Take `COc1ccc(C2CNC(=O)N2C)cc1OC1CC2CCC1C2` (centres undefined): the melting point lay within 142 to 144 °C. Then `CC[C@H](COCCCc1ccccc1)n1cnc2c(N)nc3ccccc3c21`, with 118 to 120 °C. Then `Fc1ccc2[nH]c3c(c2c1)Cc1ccccc1-3`, with 225 to 227 °C.

In turn, `NS(=O)(=O)c1cc(S(N)(=O)=O)c(-c2ccccc2)cc1F` registered a melting point of 174 to 175 °C. Then `Cn1c(=O)sc2cc(C(=O)CSCCC(=O)O)c(Cl)cc21`, with 120 to 121 °C; and `CCn1nc(C)c2nc(C)nc(O)c21`, with 220 to 223 °C. Then `CC(C)N1CC(CCl)C(c2ccccc2)(c2ccccc2)C1=O` (centres undefined), with 114 to 116 °C; and `NC(=O)c1csc(-c2cccc(N)c2)n1`, with 173 to 174 °C.

Molecule `CC12CCC(C(=O)O)=CC1=CCc1cc(Cl)ccc12` (single isomer, unassigned; (-)) had a melting point of 228 to 230 °C.

For the molecule `COC(=O)c1ccccc1-c1ccc(CBr)cc1`, the melting point was in the range of 51 to 53 °C. `COC(=O)C1Cc2cc3c(cc2C(=O)CS1)OCO3` (centres undefined) yielded a melting point of 165 to 166 °C.

Molecule `Cc1ncc([N+](=O)[O-])n1C(=O)Nc1ccccc1` gave a melting point of 218 to 220 °C. Then `CCOC(=O)CCCNc1cccc(Br)c1`, with 65 °C. The same measure for `CC(C)c1nc(CCOC(N)=O)n(Cc2ccccc2N)c1Sc1cc(Cl)cc(Cl)c1`: 167 to 170 °C; for `CN(C)Cc1ccc(CSCCNC(=C[N+](=O)[O-])NCCCCCCCCCCCCNC(=C[N+](=O)[O-])NCCSCc2ccco2)o1`: 69 to 72 °C; for `CCCNC(=O)c1nc(C)ccc1C(=O)Nc1c(Cl)ccc(C)c1C#N`: 129 to 131 °C. The same measure for `CNc1cc2c(cc1[N+](=O)[O-])OCO2`: 170 °C; for `CC(C)(C)n1c(=O)c(=O)[nH]c2ccccc21`: greater than 300 °C. Consider `CCc1cc2ccccn2c1C(=O)c1ccc(OS(=O)(=O)c2ccc(C)cc2)cc1`, for which the melting point came to 165 °C. Then `CN(C)C(=Nc1ccccc1N1CCOCC1)N1CCCCC1`, with 88 to 90 °C; and `OC(CC1CCN(CC2CC2)CC1)(c1ccccc1)c1ccc(F)cc1` (centres undefined), with 115 to 116 °C; and `COc1ccc(C2=NN(C3CCN(C(=O)[C@H](C)N)CC3)C(=O)[C@@H]3CC=CC[C@H]23)cc1OC`, with 101 to 103 °C.

`CCCCCCCCCCCCCCOC(=O)CCC(=O)CCC(=O)OCC` came in with a melting point of 43 °C. Take `Nc1ccc(NC(=O)c2ccc(CNC(=O)OCc3cccnc3)cc2)cc1`: the melting point is 204 to 205 °C.

With `Cc1cc(C)nc(N(C=O)c2ccccc2)n1`, the melting point is 134 to 135 °C. The same measure for `O=C1c2ccccc2C(O)(c2ccccc2)N1CCCN1CC=C(c2ccccc2)CC1` (centres undefined): 123 °C. Regarding `CCc1occc(=O)c1OCc1ccccc1`, the melting point lay in the range of 33 to 34 °C. `CCOC(=O)C(=O)Nc1c([N+](=O)[O-])cc(Br)c2ccccc12` had a melting point of 190 to 191 °C.

Take `Cc1[nH]c2ccc(Br)cc2c1Cc1cccnc1`: the melting point lay in the range of 188 to 190 °C.

Turning to `Cn1ncc2c1-c1c(SC(C)(C)C)sc(C(N)=O)c1CC2`, the melting point lay in the range of 146 to 147 °C.

In the case of `Cc1ccc2c(c1)c(N1CCN(C(=O)c3cccs3)CC1)c(C#N)c(=O)n2Cc1ccccc1`, the melting point came out at 183 °C. Then `NCCNC(=O)c1nc(Cl)c(N)nc1N`, with 173 to 174 °C; and `COC(=O)N=C(N)OC`, with 36 to 39.5 °C. In the case of `CC(C)c1nc(C(C)C)c(CCCCO)c(-c2ccc(F)cc2)c1CO`, the melting point fell in the range of 135 to 137 °C. For `CCc1nc2c(Cl)nc(C)cc2n1-c1ccc(CCNC(=O)NS(=O)(=O)c2ccc(C)cc2)cc1`, the melting point was determined as 163 °C.

`CCCn1cnc2c1c(=O)n(CCCCCCO)c(=O)n2C` displayed a melting point of 68 to 70 °C. Molecule `CCC(Nc1ccncc1)c1ccccc1` (centres undefined) showed a melting point of 190 to 192 °C. Then `C=C(c1ccccc1)C(O)C(NC=O)C(=O)OC` (centres undefined), with 173 to 174 °C; and `NC(=O)N1C(=O)Cc2cc(NC(=O)c3ccccc3)ccc21`, with 223 to 226 °C.

`O=C(O)CCc1cccc(OCc2nc(-c3ccccc3)c(-c3ccccc3)o2)c1` displayed a melting point of 118 to 120 °C.

Molecule `Cc1c(C)c(N2CCN(c3ccc(C(C)O)cc3)CC2)c(C)c2c1OC(C)(C)C2` (centres undefined) showed a melting point of 133 to 136 °C.

Regarding `CCC(C)(N)Cc1c[nH]c2ccccc12` (centres undefined), the melting point was 112 °C. Then `COc1ccc(-c2c(Cl)c(CN3C(=O)CCC3=O)nc3sc4c(c23)CC[C@H](C(N)=O)C4)cc1`, with 282 to 283 °C.

In turn, `C=CS(=O)(=O)CCN1CCC(N2N=C(c3ccc(OC)c(OC)c3)[C@H]3CC=CC[C@H]3C2=O)CC1` yielded a melting point of 165 to 166 °C.

Regarding `CC(C)(C)C1CC(=Cc2ccccc2)C(=O)C(=Cc2ccccc2)C1` (centres undefined), the melting point lay within 137 to 139 °C. Then `Clc1cccc(Oc2ncccc2C2=NC(c3ccccc3)CO2)c1` (centres undefined), with 78 to 80 °C; and `COC(=O)Cn1c(C(=O)OCc2ccccc2)cc2ccccc21`, with 94 °C. Then `CCCCc1ccc(NCC)c(C(=O)C(=O)OC(=O)C(=O)c2cc(CCCC)ccc2NCC)c1`, with 130 to 132 °C; and `CC(=O)c1ccc(Nc2cnc3c(NCc4ccccc4)nc(NCCO)nc3c2)cc1`, with 125 to 126 °C. The molecule `COc1ccc(-c2nc(Sc3ccc(C(F)(F)F)cc3)[nH]c2-c2ccc(OC)cc2)cc1` registered a melting point of 179 to 181 °C. Then `COC(=O)c1cc2cc(Br)ccc2nc1Cl`, with 176 to 177 °C; and `N#Cc1ccc(OCCCOc2cccc(-c3cc4cc(C#N)ccc4o3)c2)cc1`, with 157 to 158 °C; and `CC(C)(C)OC(=O)NNC(=O)C=Cc1cc(=O)c(OCc2ccccc2)c[nH]1`, with 141 °C. With `Fc1ccc(Cn2c(SC3CCNCC3)nc3cncnc32)cc1`, the melting point was 114 °C.

Molecule `O=[N+]([O-])c1cccc(/C=C/c2ccc3ccccc3n2)c1` registered a melting point of 145 to 147 °C. For `COc1ccc(Oc2ccc(OC(=O)N3CCC(C)CC3)cc2)cc1`, the melting point lay in the range of 81 to 84 °C. The same measure for `CCOC(=O)C1Cc2c([nH]c3ccccc23)CN1` (centres undefined): 126 to 128 °C. Then `COC(=O)c1ccc2nc3c(nc2c1)SC(C#N)=C(C#N)S3`, with 133 to 135 °C; and `COc1cc(OCc2ccccn2)ccc1/C=C/c1cc(/C=C/c2c[nH]c3ncccc23)n[nH]1`, with 219 to 223 °C; and `CC1=C(O)C(=O)C(C)(CC2(O)C=CC=CC2)O1` (centres undefined), with 122 to 124 °C. In turn, `CN1C(=O)N(N=Cc2cccnc2)Cc2cc(C(F)(C(F)(F)F)C(F)(F)F)ccc21` displayed a melting point greater than 300 °C. `CCCn1c(=O)c2[nH]c(/C=C/c3cccc([N+](=O)[O-])c3)nc2n(CCC)c1=O` yielded a melting point of 256 to 257 °C. The same measure for `Cc1cc(SCc2ccc(OC3CCc4cc(Cl)ccc43)cc2)ccc1OCC(=O)O` (centres undefined): 130 to 131 °C. Then `Cc1cc2c(Oc3cccc(C(F)(F)F)c3)nc(OCC(F)(F)F)nc2s1`, with 124 to 125 °C; and `CNC(=O)N1CC(Oc2ccccc2C(F)(F)F)C1`, with 134 to 136 °C; and `O=C1Nc2ccc(C(F)(F)F)cc2C1(O)c1cc(Cl)ccc1O` (centres undefined), with 156 to 158 °C.

Consider `NCCCCCC(=O)NC(CCCCN)C(=O)N(NC(=O)OCc1ccccc1)C(=O)OCc1ccccc1` (centres undefined), for which the melting point lay in the range of 167 to 168 °C. `NCC1COc2cc(F)cc(-c3ccccc3F)c2N1` (centres undefined) displayed a melting point of 77 °C. `O=C(NC1CCC1)c1cc(Nc2nc(N3CCCC3c3ccccn3)nc3ccoc23)[nH]n1` (centres undefined) registered a melting point of 250 °C.

The molecule `N#CC1=C(c2cccs2)Nc2n[nH]cc2C1c1cccc2nsnc12` (centres undefined) came in with a melting point of 254 °C.

Take `CN(c1ccccc1)c1nc(N(C)c2ccccc2)c2ccsc2n1`: the melting point lay within 85 to 87 °C.

In turn, `CCCCCCOc1ccc(-c2nc(-c3ccc(OCCCCCC)cc3O)nc(-c3ccc(OCCCCCC)cc3OCCCCCC)n2)c(O)c1` returned a melting point of 85 to 87 °C.

Molecule `OCCC(c1ccccc1)C(O)(c1ccccc1)c1ccccc1` (centres undefined) registered a melting point of 112 to 113 °C. With `COc1c(NC(=O)c2ccc(C)c(-n3cc(C(=O)O)nn3)c2)cc(C(C)(C)C)cc1NS(C)(=O)=O`, the melting point was in the range of 222 to 224 °C.

`COCCn1cc(C(=O)O)c2c(C(=O)N3CCOCC3)cccc21` had a melting point of 201 to 203 °C. The same measure for `CS(=O)(=O)Nc1cc(NS(C)(=O)=O)cc([N+](=O)[O-])c1`: 223 to 224 °C; for `CCCCCS(=O)(=O)NC(=O)/C=C/c1ccc(OCCCOCCOC)cc1Oc1ncc(C(F)(F)F)cc1Cl`: 103 to 105 °C. The same measure for `CC1(C)Oc2ccc(S(=O)(=O)c3ccccc3)cc2[C@@H](N2CCCC2=O)[C@@H]1O` (relative stereo): 200 to 201 °C.

With `COc1cc(/C=C/c2ccc(C)cc2)cc(OC)c1OC`, the melting point lay within 125 to 127 °C. Then `CC(Cc1ccc(-c2ncc(NC(=O)C(F)(F)F)o2)cc1)N1CC(c2cccc(Cl)c2)OC1=O` (centres undefined), with 163 to 164 °C. The same measure for `CCOC(=O)c1cc2cc(OCCCS(C)(=O)=O)cc(NS(=O)(=O)c3ccccn3)c2[nH]1`: 194 to 195 °C.
